Data reported in the supplement of paper PMC10307832.

Experiments:
Test in all cases: relative viability (nuclei count vs DMSO), 5 days (fraction); higher = more cells survive
[1] = compound: CC1CC(=O)N(C2=CN=C(N=C2N1C3CCCC3)NC4=C(C=C(C=C4)C(=O)NC5CCN(CC5)C)OC)C [NPK76-II-72-1] + C[C@@H](Oc1cc(-c2cnn(C3CCNCC3)c2)cnc1N)c1c(Cl)ccc(F)c1Cl [Crizotinib] (partner 1 µM)
How it was run: (§1)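 Medians of duplicate plates are given as relative viability. That measure is the nuclei count in treated wells divided by the count in vehicle wells. Counts were taken on 4× images of lung cancer cell lines in 1536-well plates, 5 days after pin-tool dosing the day after seeding with one drug alone or a fixed anchor-drug dose plus five library-drug doses (not always all listed) in √10 steps.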

[2] = compound: CC[C@@H]1C(=O)N(C)c2cnc(Nc3ccc(C(=O)NC4CCN(C)CC4)cc3OC)nc2N1C1CCCC1 [BI-2536] + CS(=O)(=O)N1CCN(Cc2cc3nc(-c4cccc5[nH]ncc45)nc(N4CCOCC4)c3s2)CC1 [Pictilisib] (partner 1 µM)
How it was run: as §1

[3] = compound: CC1CC(=O)N(C2=CN=C(N=C2N1C3CCCC3)NC4=C(C=C(C=C4)C(=O)NC5CCN(CC5)C)OC)C [NPK76-II-72-1] + C[C@]1(O)C[C@@H](c2nc(-c3ccc4ccc(-c5ccccc5)nc4c3)c3c(N)nccn32)C1 [Linsitinib] (partner 1 µM)
How it was run: as §1

[4] = compound: CC1CC(=O)N(C2=CN=C(N=C2N1C3CCCC3)NC4=C(C=C(C=C4)C(=O)NC5CCN(CC5)C)OC)C [NPK76-II-72-1] + COc1cc2c(Oc3ccc(NC(=O)C4(C(=O)Nc5ccc(F)cc5)CC4)cc3F)ccnc2cc1OCCCN1CCOCC1 [Foretinib] (partner 0.25 µM)
How it was run: as §1

| Cell Line | relative viability ([1]; first compound 0.01 µM) | relative viability ([1]; first compound 0.03162 µM) | relative viability ([1]; first compound 0.1 µM) | relative viability ([1]; first compound 0.3162 µM) | relative viability ([1]; first compound 1 µM) | relative viability ([2]; first compound 0.01 µM) | relative viability ([2]; first compound 0.03162 µM) | relative viability ([2]; first compound 0.1 µM) | relative viability ([2]; first compound 0.3162 µM) | relative viability ([2]; first compound 1 µM) | relative viability ([3]; first compound 0.01 µM) | relative viability ([3]; first compound 0.03162 µM) | relative viability ([3]; first compound 0.1 µM) | relative viability ([3]; first compound 0.3162 µM) | relative viability ([3]; first compound 1 µM) | relative viability ([4]; first compound 0.01 µM) | relative viability ([4]; first compound 0.03162 µM) | relative viability ([4]; first compound 0.1 µM) | relative viability ([4]; first compound 0.3162 µM) | relative viability ([4]; first compound 1 µM) |
| --- | --- | --- | --- | --- | --- | --- | --- | --- | --- | --- | --- | --- | --- | --- | --- | --- | --- | --- | --- | --- |
| NCI-H2087 | 0.844 | 0.786 | 0.82 | 0.902 | 1.01 | 1 | 0.872 | 0.381 | 0.192 | 0.143 | 1.02 | 0.996 | 0.909 | 1 | 1.11 | 1.04 | 1.06 | 1.09 | 1.12 | 1.32 |
| NCI-H1437 | 0.843 | 0.956 | 0.834 | 0.746 | 0.967 | 0.428 | 0.427 | 0.397 | 0.098 | 0.099 | 0.973 | 1.08 | 0.986 | 0.802 | 1.07 | 1.22 | 1.27 | 1.15 | 1.11 | 1.25 |
| NCI-H650 | 0.799 | 0.865 | 0.629 |  | 0.825 | 0.849 | 0.584 | 0.245 | 0.206 | 0.15 | 0.941 | 1.02 | 0.652 |  | 0.845 | 1.01 | 1.04 | 0.971 | 0.918 | 1.04 |
| COR-L23 | 0.73 | 0.715 | 0.738 | 0.619 | 0.647 | 0.636 | 0.593 | 0.101 | 0.0743 | 0.0991 | 0.869 | 0.918 | 0.898 | 0.908 | 1.04 | 0.915 | 0.977 | 1.01 | 0.9 | 0.979 |
| COR-L 105 | 0.709 | 0.899 | 0.643 | 0.61 | 0.979 | 0.437 | 0.358 | 0.23 | 0.237 | 0.216 | 1.01 | 0.936 | 1.09 | 0.738 | 1.13 | 0.865 | 1.25 | 1.06 | 1.03 | 0.89 |
| LK-2 | 0.22 | 0.247 | 0.238 |  | 0.241 | 0.569 | 0.389 | 0.375 | 0.196 | 0.297 | 0.543 | 0.69 | 0.729 | 0.415 | 0.743 | 1.15 | 1.26 | 1.09 | 1.09 | 1.13 |
| 201T | 1.01 | 1.01 | 1.02 | 1.01 | 1.01 | 0.686 | 0.618 | 0.586 | 0.253 | 0.308 | 1.01 | 0.969 | 1.06 | 1.06 | 1.09 | 1.06 | 1.12 | 1.15 | 1.06 | 1.27 |
| NCI-H596 | 1 | 1.04 | 0.95 | 1.02 | 1.05 | 0.376 | 0.293 | 0.198 | 0.215 | 0.205 | 1.02 | 1.14 | 1.06 | 1.13 | 1.09 | 0.907 | 1.01 | 0.824 | 0.819 | 0.842 |
